What was measured:
Olfr983 = assay: OR transcript level by RT-qPCR after in vivo odorant exposure; parameters: species or system mouse; key to olfr983 candidate OR (RNAseq) confirmed by qPCR: The transcript downregulation of 21 out of the 26 olfactory receptor candidates obtained by RNAseq was confirmed by qPCR; false RNAseq positive candidates, namely OR candidates for which in fact mRNA was not downregulated following acetophenone exposure; settings: for Olfr983 mRNA level relative to unexposed controls: 5% odorant, 5 hours, in vivo, RT-qPCR
Experimental: (§1) In vivo exposure to odorant: Starting 48 h before experiments, mice were habituated to pure DMSO on a cotton ball. 200 μl were pipetted directly onto the cotton and placed in the cage, replacing any cotton that was already in the cage for nest-making purposes.
(§2) On the day of the experiment, mice receiving odorants were transferred to a different room, where they were exposed to a cotton ball on which 200 μl of odorant diluted in pure DMSO were deposited. Exposures started in the morning between 8 and 10 am (that is two hours after lights were on) and mice were killed and dissected between 1 and 3 pm. […] If a number of different odorants were tested in the same experiment, a different overpressurized room would always be used for each odorant to avoid odor cross-contamination.
(§3) After odorant exposure, mice were killed by cervical dislocation and immediately decapitated. The main olfactory epithelia (MOE), were harvested in their entirety and transferred to a tube containing 600 μl of lysis buffer and β-mercaptoethanol (RNAeasy kit, Qiagen, following the manufacturer protocol) and a 0.5 cm diameter steel ball, and then put on ice. Samples were then homogenized using a FastPrep®-24 instrument (MP Biomedicals) at 6 m/s for 30 s and left on ice. RNA extraction was performed on all samples in parallel using the Qiagen RNeasy Mini® kit following the manufacturer's instructions. Two DNase treatments were performed on all samples: first using the Qiagen RNase-Free DNase Set® and then using the Life Technologies Ambion DNase I® kit. RNA samples were then aliquoted and stored at −80° C.
(§4) RNA concentrations were determined using an Amersham Ultrospec® 3100 Pro spectrophotometer, and RNA quality was evaluated with an Agilent Technologies 2100 Bioanalyzer®. […]
(§5) qPCR Ct values were analyzed using an in-house developed Microsoft Excel® macro file. […] Ct values were converted to quantities relative to the maximum for each given gene. Selected reference genes were then analyzed for variance using the geNorm algorithm. […]

olfr478 = molecular target: T1, olfr478 (Mus musculus, UniProt Q8VG04); assay: as above; parameters: key: The transcript downregulation of 21 out of the 26 olfactory receptor candidates obtained by RNAseq was confirmed by qPCR; false RNAseq positive candidates, namely OR candidates for which in fact mRNA was not downregulated following acetophenone exposure; settings: 5% acetophenone exposure
T1 construct: from tissue; host or cells: main olfactory epithelium of living mice
T1 sequence (Q8VG04 whole entry): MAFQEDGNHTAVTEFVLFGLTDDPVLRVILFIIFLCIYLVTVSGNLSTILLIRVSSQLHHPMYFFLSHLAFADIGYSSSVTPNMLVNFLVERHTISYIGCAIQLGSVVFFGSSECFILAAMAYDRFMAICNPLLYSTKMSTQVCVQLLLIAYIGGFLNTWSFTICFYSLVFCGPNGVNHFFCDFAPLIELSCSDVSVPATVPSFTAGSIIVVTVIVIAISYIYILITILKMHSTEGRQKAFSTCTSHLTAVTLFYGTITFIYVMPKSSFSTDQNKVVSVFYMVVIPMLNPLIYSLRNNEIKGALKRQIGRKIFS
Experimental: as §1, §2, §3
(§6) RNA concentrations were determined using an Amersham Ultrospec® 3100 Pro spectrophotometer, and RNA quality was evaluated with an Agilent Technologies 2100 Bioanalyzer®. Each reverse transcription was performed with 0.5 μg RNA using the Takara Primescript® kit, in a final volume of 10 μl. Primers for reverse transcription were equal mixtures of poly-T nucleotides and random hexamers. Negative controls (omitting the reverse transcriptase enzyme) were performed for each sample. 1/14th of the cDNA preparation was used for each triplicated qPCR reaction.
(§7) qPCR Ct values were analyzed using an in-house developed Microsoft Excel® macro file. Triplicate values were compared and outliers (values with a difference higher than 0.5 Ct to their nearest neighbor) were discarded. The number of conditions with an outlying value was always less than 10% of the total number of conditions. Ct values were converted to quantities relative to the maximum for each given gene. Selected reference genes were then analyzed for variance using the geNorm algorithm. All values were normalized with the olfactory tissue-specific genes Omp and Adcy3. β-Actin was used as a non-tissue-specific reference gene to control for differences in dissection between samples.
(§8) Mice (n=6) were exposed to 5% acetophenone or to a “neutral” control condition for 5 hours. An olfactory cDNA library corresponding to each animal was deep sequenced and the ratios of odorant receptor mRNA concentrations relative to controls were plotted (FIG. 3). […] Based on transcriptional downregulation levels observed by RNAseq following acetophenone exposure, a list of 26 candidate responsive ORs was determined (FIG. 3), that reached 74% decrease (Olfr145) or even over 80% (Olfr169) relative to controls. […] The transcript downregulation of 21 out of the 26 olfactory receptor candidates obtained by RNAseq was confirmed by qPCR.

olfr476 = molecular target: T2, olfr476 (Mus musculus, UniProt Q8VGI4); assay: as above; parameters: key: The transcript downregulation of 21 out of the 26 olfactory receptor candidates obtained by RNAseq was confirmed by qPCR; false RNAseq positive candidates, namely OR candidates for which in fact mRNA was not downregulated following acetophenone exposure; settings: 5% acetophenone exposure
T2 construct: from tissue; host or cells: main olfactory epithelium of living mice
T2 sequence (Q8VGI4 whole entry): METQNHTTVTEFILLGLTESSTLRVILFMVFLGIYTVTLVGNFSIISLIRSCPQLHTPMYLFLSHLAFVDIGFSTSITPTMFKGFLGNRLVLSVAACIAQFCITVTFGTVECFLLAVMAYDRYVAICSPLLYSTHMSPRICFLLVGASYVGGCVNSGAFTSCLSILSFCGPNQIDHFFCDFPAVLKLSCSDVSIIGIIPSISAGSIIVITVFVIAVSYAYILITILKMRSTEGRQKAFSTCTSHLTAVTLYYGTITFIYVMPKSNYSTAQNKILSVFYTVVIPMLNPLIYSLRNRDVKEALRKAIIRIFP
Experimental: as §1, §2, §3, §6, §7, §8

Olfr730 = molecular target: T3, Olfr730 (Mus musculus, UniProt A0A0U1RNX7); assay: as above; settings: 5% odorant, 5 hours
T3 construct: from tissue; host or cells: olfactory epithelium of adult C57BL/6 mice
T3 sequence (A0A0U1RNX7 1-317): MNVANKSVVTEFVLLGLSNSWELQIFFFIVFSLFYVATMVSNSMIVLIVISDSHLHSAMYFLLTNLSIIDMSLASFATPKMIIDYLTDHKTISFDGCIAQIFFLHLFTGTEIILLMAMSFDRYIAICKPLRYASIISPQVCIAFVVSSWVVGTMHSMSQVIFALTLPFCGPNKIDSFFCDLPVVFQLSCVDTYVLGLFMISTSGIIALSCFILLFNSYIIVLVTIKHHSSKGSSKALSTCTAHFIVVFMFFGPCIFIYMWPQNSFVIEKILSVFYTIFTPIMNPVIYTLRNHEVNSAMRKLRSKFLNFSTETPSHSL
Experimental: as §1
On the day of the experiment, mice receiving odorants were transferred to a different room, where they were exposed to a cotton ball on which 200 μl of odorant diluted in pure DMSO were deposited. Exposures started in the morning between 8 and 10 am (that is two hours after lights were on) and mice were killed and dissected between 1 and 3 pm. […]
as §4, §5
Adult C57BL/6 mice were exposed to 5% acetophenone for 5 hours, and the level of transcripts of odorant receptors' genes were measured by RT-qPCR on extracts of olfactory epithelia from these mice, as described in the materials and methods section.

Olfr556 = molecular target: T4, Olfr556 (Mus musculus, UniProt B2RRG2); assay: OR transcript downregulation by RNAseq after in vivo exposure; parameters: from tissue; host or cells: main olfactory epithelium of exposed mice; settings: 5% odorant, 5 hours, reduction larger than 20% = downregulated
T4 sequence (B2RRG2 1-324): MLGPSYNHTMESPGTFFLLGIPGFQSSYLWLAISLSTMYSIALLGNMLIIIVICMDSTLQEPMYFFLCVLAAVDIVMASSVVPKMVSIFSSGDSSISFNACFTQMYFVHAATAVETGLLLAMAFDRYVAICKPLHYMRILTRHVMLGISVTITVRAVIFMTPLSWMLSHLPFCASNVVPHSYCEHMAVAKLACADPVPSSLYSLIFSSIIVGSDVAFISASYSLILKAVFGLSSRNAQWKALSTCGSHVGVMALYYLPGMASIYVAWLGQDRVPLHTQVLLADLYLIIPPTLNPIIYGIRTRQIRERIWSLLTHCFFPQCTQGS
Experimental: Animals were exposed to 5% acetophenone for 5 hours before RNA extraction (as previously described). cDNA libraries were generated with the Truseq RNA and DNA sample preparation kits after selection of polyA-containing mRNAs. Adapters for RNAseq multiplexing were added to the cDNAs. The cDNA libraries were sequenced with a HiSeq®2500 Sequencing system. 100 bp reads were mapped using Bowtie2 with a 28 bp seed. The differential gene expression analyses were performed with DESeq2. Because of the high sequence similarity between OR gene paralogs, some reads are mapped to multiple OR genes. These reads were removed from the analysis.
as §8

CC(=O)c1ccccc1 [acetophenone]
olfr983 candidate OR (RNAseq) confirmed by qPCR (Olfr983; 5% acetophenone exposure): y
Olfr983 mRNA level relative to unexposed controls (Olfr983): decrease
Olfr983 mRNA level relative to unexposed controls (Olfr983; listed as Acetophenone): downregulates
olfr478 candidate OR (RNAseq) confirmed by qPCR (olfr478): y
olfr476 candidate OR (RNAseq) confirmed by qPCR (olfr476): y
Olfr730 mRNA concentration increase, fold change (Olfr730): 1.4 fold
Olfr556 transcript modulation (RNAseq) (Olfr556): downregulated
